Source: ChEMBL document CHEMBL1144283, “Truncated azinomycin analogues intercalate into DNA” (Bioorg Med Chem Lett, 2005)

Key:
[1] = Inhibitory concentration measured against the prostate cancer cell line DU145; IA:Inactive; assay type: functional, cell-based, Homo sapiens; conditions: cancer cell lines
[2] = Inhibitory concentration measured against the prostate cancer cell line DU145; assay type: functional, cell-based, Homo sapiens; conditions: cancer cell lines

| Structure (SMILES) | IC50 [1] | IC50 [2] [nM] |
| --- | --- | --- |
| COc1cc(C(=O)NCCN2CCCC(Cl)C2)c2cccc(C)c2c1 (stereo not drawn) | Not Active | – |
| COc1cc(C(=O)O[C@H](C(N)=O)[C@]2(C)CO2)c2cccc(C)c2c1 | – | 50 |
| COc1cc(C(=O)NCCN2CCCC(O)C2)c2cccc(C)c2c1 (stereo not drawn) | Not Active | – |
